Laboratory results taken from US8592432B2, “Compounds and compositions as protein kinase inhibitors” (priority 2008, dated 2013).

Molecular target: ALK (Homo sapiens (Human), UniProt Q9UM73)
Assay: ALK IC50 (Tables 1-4)
Type: biochemical
Description: Assays are incubated for 10 min at ambient temperature. […] Following washing (0.5% H3PO4), plates are counted in a liquid scintillation counter. IC50 values are calculated by linear regression analysis of the percentage inhibition.
Compounds of the present invention may be assessed for their ability to inhibit ALK using assays described below, as well as other assays known in the art.

ALK, sequence (Q9UM73 1116-1392): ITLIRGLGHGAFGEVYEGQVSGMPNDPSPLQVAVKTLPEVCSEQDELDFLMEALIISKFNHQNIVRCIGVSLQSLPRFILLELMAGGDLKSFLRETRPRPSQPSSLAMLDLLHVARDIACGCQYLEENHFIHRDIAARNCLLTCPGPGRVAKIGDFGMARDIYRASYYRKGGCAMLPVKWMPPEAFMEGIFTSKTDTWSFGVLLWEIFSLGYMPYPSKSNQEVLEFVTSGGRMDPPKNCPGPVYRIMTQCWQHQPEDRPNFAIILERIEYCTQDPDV

Compound: Cc1cc(Nc2nc(Nc3ccccc3S(=O)(=O)C(C)C)c3c(C)n[nH]c3n2)c(OC(C)C)cc1C1CCN(C)CC1 [Compound 34, N6-(2-isopropoxy-5-methyl-4-(1-methylpiperidin-4-yl)phenyl)-N4-(2-(isoproplsulfonyl)phenyl)-3-methyl-1H-pyrazolo[3,4-d]pyrimidine-4,6-diamine]
- IC50: 20 nM
